Assay results: PubChem BioAssay (NCI)
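At the GI50, growth is halved. TGI: total growth inhibition.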

What was measured:
Experiment in all cases: NCI tumour cell line growth inhibition, 384-well format; in the data active = GI50 below about 0.43 µM; inactive = the rest
786-0 renal = test system: 786-0 renal
A498 renal = test system: A498 renal
A549 NSCLC = test system: A549 NSCLC
ACHN renal = test system: ACHN renal
BT-549 breast = test system: BT-549 breast
CAKI-1 renal = test system: CAKI-1 renal
CCRF-CEM leukemia = test system: CCRF-CEM leukemia
COLO 205 colon = test system: COLO 205 colon
DU-145 prostate = test system: DU-145 prostate
EKVX NSCLC = test system: EKVX NSCLC
HCC-2998 colon = test system: HCC-2998 colon
HCT-116 colon = test system: HCT-116 colon
HCT-15 colon = test system: HCT-15 colon
HL-60(TB) leukemia = test system: HL-60(TB) leukemia
HOP-62 NSCLC = test system: HOP-62 NSCLC
HOP-92 NSCLC = test system: HOP-92 NSCLC
HS 578T breast = test system: HS 578T breast
HT29 colon = test system: HT29 colon
IGROV1 ovarian = test system: IGROV1 ovarian
K-562 leukemia = test system: K-562 leukemia
KM12 colon = test system: KM12 colon
LOX IMVI melanoma = test system: LOX IMVI melanoma
M14 melanoma = test system: M14 melanoma
MALME-3M melanoma = test system: MALME-3M melanoma
MCF7 breast = test system: MCF7 breast
MDA-MB-231 breast = test system: MDA-MB-231 breast
MDA-MB-435 melanoma = test system: MDA-MB-435 melanoma
MDA-MB-468 breast = test system: MDA-MB-468 breast
MOLT-4 leukemia = test system: MOLT-4 leukemia
NCI-H226 lung = test system: NCI-H226 lung
NCI-H23 lung = test system: NCI-H23 lung
NCI-H322M lung = test system: NCI-H322M lung
NCI-H460 NSCLC = test system: NCI-H460 NSCLC
NCI-H522 lung = test system: NCI-H522 lung
NCI/ADR-RES ovarian = test system: NCI/ADR-RES ovarian
OVCAR-3 ovarian = test system: OVCAR-3 ovarian
OVCAR-4 ovarian = test system: OVCAR-4 ovarian
OVCAR-5 ovarian = test system: OVCAR-5 ovarian
PC-3 prostate = test system: PC-3 prostate
RPMI-8226 leukemia = test system: RPMI-8226 leukemia
RXF 393 renal = test system: RXF 393 renal
SF-268 CNS = test system: SF-268 CNS
SF-295 CNS = test system: SF-295 CNS
SF-539 CNS = test system: SF-539 CNS
SK-MEL-2 melanoma = test system: SK-MEL-2 melanoma
SK-MEL-28 melanoma = test system: SK-MEL-28 melanoma
SK-MEL-5 melanoma = test system: SK-MEL-5 melanoma
SK-OV-3 ovarian = test system: SK-OV-3 ovarian
SN12C renal = test system: SN12C renal
SNB-19 CNS = test system: SNB-19 CNS
SNB-75 CNS = test system: SNB-75 CNS
SR leukemia = test system: SR leukemia
SW-620 colon = test system: SW-620 colon
T-47D breast = test system: T-47D breast
TK-10 renal = test system: TK-10 renal
U251 glioblastoma = test system: U251 glioblastoma
UACC-257 melanoma = test system: UACC-257 melanoma
UACC-62 melanoma = test system: UACC-62 melanoma
UO-31 renal = test system: UO-31 renal

Cc1ccc(NS(=O)(=O)c2cccc(C#N)c2)c2[nH]cc(C#N)c12
65.6 µM: TGI (HS 578T breast)
83.9 µM: TGI (EKVX NSCLC)
43.3 µM: TGI (CCRF-CEM leukemia)
47.7 µM: TGI (RPMI-8226 leukemia)
42.1 µM: TGI (SF-295 CNS)
> 100 µM: TGI (786-0 renal) | TGI (A498 renal) | TGI (A549 NSCLC) | TGI (ACHN renal) | TGI (CAKI-1 renal) | TGI (COLO 205 colon) | TGI (DU-145 prostate) | TGI (HCC-2998 colon) | TGI (HCT-116 colon) | TGI (HCT-15 colon) | TGI (HOP-62 NSCLC) | TGI (HT29 colon) | TGI (IGROV1 ovarian) | TGI (K-562 leukemia) | TGI (KM12 colon) | TGI (LOX IMVI melanoma) | TGI (M14 melanoma) | TGI (MALME-3M melanoma) | TGI (MCF7 breast) | TGI (MDA-MB-231 breast) | TGI (NCI-H322M lung) | TGI (NCI-H460 NSCLC) | TGI (NCI/ADR-RES ovarian) | TGI (OVCAR-4 ovarian) | TGI (OVCAR-5 ovarian) | TGI (PC-3 prostate) | TGI (SF-268 CNS) | TGI (SF-539 CNS) | TGI (SK-OV-3 ovarian) | TGI (SN12C renal) | TGI (SNB-19 CNS) | TGI (SNB-75 CNS) | TGI (SW-620 colon) | TGI (TK-10 renal) | TGI (U251 glioblastoma) | TGI (UACC-257 melanoma)
53.9 µM: TGI (UO-31 renal)
28 µM: TGI (UACC-62 melanoma)
15.3 µM: TGI (NCI-H522 lung)
active: GI50 (HCT-116 colon) 0.246 µM | GI50 (IGROV1 ovarian) 0.247 µM | GI50 (MDA-MB-468 breast) 0.165 µM | GI50 (NCI-H522 lung) 0.292 µM | GI50 (SR leukemia) 0.155 µM
95.9 µM: TGI (SK-MEL-28 melanoma)
70.6 µM: TGI (NCI-H226 lung)
0.799 µM: TGI (SR leukemia)
43.9 µM: TGI (NCI-H23 lung)
54.6 µM: TGI (HOP-92 NSCLC)
79.2 µM: TGI (T-47D breast)
52.7 µM: TGI (RXF 393 renal)
26 µM: TGI (HL-60(TB) leukemia)
38 µM: TGI (SK-MEL-5 melanoma)
0.629 µM: TGI (MDA-MB-468 breast)
87.6 µM: TGI (OVCAR-3 ovarian)
60 µM: TGI (SK-MEL-2 melanoma)
inactive: GI50 ([…]-0 renal) 11.7 µM | GI50 (A498 renal) 19.7 µM | GI50 (A549 NSCLC) 15.1 µM | GI50 (ACHN renal) 10.4 µM | GI50 (BT-549 breast) 24.9 µM | GI50 (CAKI-1 renal) 18 µM | GI50 (CCRF-CEM leukemia) 15.1 µM | GI50 (COLO 205 colon) 10.5 µM | GI50 (DU-145 prostate) 4.29 µM | GI50 (EKVX NSCLC) 28.7 µM | GI50 (HCC-2998 colon) 24 µM | GI50 (HCT-15 colon) 10.3 µM | GI50 (HL-60(TB) leukemia) 12 µM | GI50 (HOP-62 NSCLC) 12.2 µM | GI50 (HOP-92 NSCLC) 19.9 µM | GI50 (HS 578T breast) 16.2 µM | GI50 (HT29 colon) 47.2 µM | GI50 (K-562 leukemia) 0.525 µM | GI50 (KM12 colon) 27.1 µM | GI50 (LOX IMVI melanoma) 32.1 µM | GI50 (M14 melanoma) 26.5 µM | GI50 (MALME-3M melanoma) 61.7 µM | GI50 (MCF7 breast) 11 µM | GI50 (MDA-MB-231 breast) 14.7 µM | GI50 (MDA-MB-435 melanoma) 10.6 µM | GI50 (MOLT-4 leukemia) 0.66 µM | GI50 (NCI-H226 lung) 12.4 µM | GI50 (NCI-H23 lung) 20 µM | GI50 (NCI-H322M lung) 39.4 µM | GI50 (NCI-H460 NSCLC) 17.6 µM | GI50 (NCI/ADR-RES ovarian) 1.24 µM | GI50 (OVCAR-3 ovarian) 22.2 µM | GI50 (OVCAR-4 ovarian) 18.2 µM | GI50 (OVCAR-5 ovarian) 31.1 µM | GI50 (PC-3 prostate) 1.44 µM | GI50 (RPMI-8226 leukemia) 14.5 µM | GI50 (RXF 393 renal) 15.6 µM | GI50 (SF-268 CNS) 37.4 µM | GI50 (SF-295 CNS) 7.23 µM | GI50 (SF-539 CNS) 37.5 µM | GI50 (SK-MEL-2 melanoma) 33.3 µM | GI50 (SK-MEL-28 melanoma) 32.9 µM | GI50 (SK-MEL-5 melanoma) 15.7 µM | GI50 (SK-OV-3 ovarian) 6.53 µM | GI50 (SN12C renal) 27.7 µM | GI50 (SNB-19 CNS) 20.2 µM | GI50 (SNB-75 CNS) 29.9 µM | GI50 (SW-620 colon) 14.7 µM | GI50 (T-47D breast) 23.1 µM | GI50 (TK-10 renal) 5.02 µM | GI50 (U251 glioblastoma) 16.9 µM | GI50 (UACC-257 melanoma) 48.6 µM | GI50 (UACC-62 melanoma) 0.777 µM | GI50 (UO-31 renal) 17.8 µM
57.6 µM: TGI (BT-549 breast)
13.6 µM: TGI (MOLT-4 leukemia)
44.5 µM: TGI (MDA-MB-435 melanoma)
